# Target: T1, CFTR (Homo sapiens, UniProt P13569, DEL508-508)
# T1 construct: endogenous in cells; host or cells: primary human bronchial epithelial cells from CF subjects (F508del/MF-HBE), differentiated at air-liquid interface
# Test: HBE2 assay: Ussing chamber assay of CFTR-mediated short-circuit currents
# Type: cell-based
# Conditions: 3 μM corrector; F508del/MF-HBE cells; with 44 nM potentiator, 18-24 hours, 20% human serum
# Procedure, shortened: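 F508del/MF-HBE cultured >14 days at air-liquid interface, mounted in Ussing chambers; transepithelial short-circuit current recorded under voltage clamp (Vhold=0 mV) at 37 °C. CFTR-mediated ISC (μA/cm^2) taken as peak forskolin response relative to steady-state current after inhibition; corrector activity assessed this way.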
# T1 sequence (P13569 with tags, fused parts or gaps DEL508-508): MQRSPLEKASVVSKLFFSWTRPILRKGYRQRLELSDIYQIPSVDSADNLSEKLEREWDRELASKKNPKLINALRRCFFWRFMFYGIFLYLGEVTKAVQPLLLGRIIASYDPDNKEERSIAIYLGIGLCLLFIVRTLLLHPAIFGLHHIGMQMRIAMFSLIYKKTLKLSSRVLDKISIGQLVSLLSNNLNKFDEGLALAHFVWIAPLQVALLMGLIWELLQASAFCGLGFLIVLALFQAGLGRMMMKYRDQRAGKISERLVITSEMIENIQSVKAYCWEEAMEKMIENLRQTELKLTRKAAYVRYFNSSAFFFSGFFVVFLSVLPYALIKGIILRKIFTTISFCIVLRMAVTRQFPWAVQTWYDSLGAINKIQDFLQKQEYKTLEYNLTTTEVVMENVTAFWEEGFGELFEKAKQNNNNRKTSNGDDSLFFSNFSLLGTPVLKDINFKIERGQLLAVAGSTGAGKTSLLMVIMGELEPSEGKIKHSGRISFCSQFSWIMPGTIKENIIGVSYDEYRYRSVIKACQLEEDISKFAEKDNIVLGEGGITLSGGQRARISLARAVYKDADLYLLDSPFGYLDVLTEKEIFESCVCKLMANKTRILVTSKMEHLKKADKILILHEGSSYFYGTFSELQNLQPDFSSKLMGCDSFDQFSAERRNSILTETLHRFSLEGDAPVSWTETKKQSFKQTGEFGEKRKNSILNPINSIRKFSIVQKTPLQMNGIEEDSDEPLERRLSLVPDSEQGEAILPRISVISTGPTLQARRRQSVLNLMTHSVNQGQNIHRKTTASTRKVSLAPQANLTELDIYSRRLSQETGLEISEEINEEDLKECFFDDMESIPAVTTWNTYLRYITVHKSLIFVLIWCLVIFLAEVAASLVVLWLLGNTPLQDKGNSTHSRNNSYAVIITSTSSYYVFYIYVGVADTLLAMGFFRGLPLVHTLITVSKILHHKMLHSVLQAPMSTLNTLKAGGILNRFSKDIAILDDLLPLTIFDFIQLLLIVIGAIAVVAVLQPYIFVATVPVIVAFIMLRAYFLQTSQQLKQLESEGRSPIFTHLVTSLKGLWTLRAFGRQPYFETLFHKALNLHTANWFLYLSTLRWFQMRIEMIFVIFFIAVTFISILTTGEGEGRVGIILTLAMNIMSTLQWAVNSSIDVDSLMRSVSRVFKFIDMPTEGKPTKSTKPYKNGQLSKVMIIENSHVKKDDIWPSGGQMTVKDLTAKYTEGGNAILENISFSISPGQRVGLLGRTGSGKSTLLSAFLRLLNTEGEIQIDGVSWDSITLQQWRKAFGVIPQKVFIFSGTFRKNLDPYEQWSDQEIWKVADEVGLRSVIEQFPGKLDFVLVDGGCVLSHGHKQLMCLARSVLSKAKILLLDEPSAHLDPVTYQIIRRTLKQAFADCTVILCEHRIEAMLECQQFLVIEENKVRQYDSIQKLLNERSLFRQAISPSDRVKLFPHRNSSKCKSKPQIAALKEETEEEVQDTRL
row,HBE2 Activity at 3 μM (%),SMILES
1,+++ (+++ is >60+),"Cc1cccc(C)c1-c1cc2nc(n1)NS(=O)(=O)c1cccc(c1)C(=O)N(Cc1cncc(N(C)C3CCC3)n1)[C@H](COC(C)C)CO2 [Compound 1324, (11R)-12-[[6-[Cyclobutyl(methyl)amino]pyrazin-2-yl]methyl]-6-(2,6-dimethylphenyl)-11-(isopropoxymethyl)-2,2-dioxo-9-oxa-2λ^6-thia-3,5,12,19-tetrazatricyclo[12.3.1.14,8]nonadeca-1(18),4(19),5,7,14,16-hexaen-13-one]"
2,+++ (+++ is >60+),Cc1cccc(C)c1-c1cc2nc(n1)NS(=O)(=O)c1cccc(c1)C(=O)N(Cc1cncc(C3CCCCO3)n1)[C@H](CCC(C)(C)C)CO2 (stereo in doubt) [Compound 1881]
3,+++ (+++ is >60+),Cc1cccc(C)c1-c1cc2nc(n1)NS(=O)(=O)c1cccc(c1)C(=O)N(Cc1cncc(N3CC[C@@H]3C(C)C)n1)[C@H](CC1CCCCC1)CO2 (stereo in doubt) [Compound 1887]
4,+++ (+++ is >60+),Cc1cccc(C)c1-c1cc2nc(n1)NS(=O)(=O)c1cccc(c1)C(=O)N(Cc1cncc(N3CCC[C@@H]4CC[C@@H]43)n1)[C@H](CC(C)(C)F)CO2 [Compound 1840]
5,+++ (+++ is >60+),COCC1(CN(C)c2cncc(CN3C(=O)c4cccc(c4)S(=O)(=O)Nc4nc(cc(-c5c(C)cccc5C)n4)OC[C@H]3CCC(C)(C)C)n2)CC1 [Compound 1876]
6,+++ (+++ is >60+),"Cc1cccc(C)c1-c1cc2nc(n1)NS(=O)(=O)c1cccc(c1)C(=O)N(Cc1cncc(N3CCCC[C@H]3C)n1)[C@@H](CCC(C)(C)F)CO2 (single isomer, unassigned) [Compound 1327]"
7,+ (+ is <300)),Cc1cccc(C)c1-c1cc2nc(n1)NS(=O)(=O)c1cccc(c1)C(=O)N(Cc1cncc(N3CCCC[C@@H]3C)n1)[C@H](C1CC(C)(C)C1)CO2 (stereo in doubt) [Compound 1897]
8,+++ (+++ is >60+),CCN(CC1CC1)c1cncc(CN2C(=O)c3cccc(c3)S(=O)(=O)Nc3nc(cc(-c4c(C)cccc4C)n3)OC[C@H]2CCC(C)(C)C)n1 [Compound 1809]
9,+++ (+++ is >60+),Cc1cccc(C)c1-c1cc2nc(n1)NS(=O)(=O)c1cccc(c1)C(=O)N(Cc1cncc(N(C)CC(C)C)n1)[C@H](CCC(C)(C)C)CO2 [Compound 1791]
10,+++ (+++ is >60+),Cc1cccc(C)c1-c1cc2nc(n1)NS(=O)(=O)c1cccc(c1)C(=O)N(Cc1cncc(N3[C@H](C)CC[C@H]3C)n1)[C@H](CCC(C)(C)C)CO2 [Compound 1947]
11,+++ (+++ is >60+),Cc1cccc(C)c1-c1cc2nc(n1)NS(=O)(=O)c1cccc(c1)C(=O)N(Cc1cnc3cc(C(C)C)n(C)c3n1)[C@H](CC1CC1)CO2 [Compound 1820]
12,+++ (+++ is >60+),Cc1cccc(C)c1-c1cc2nc(n1)NS(=O)(=O)c1cccc(c1)C(=O)N(Cc1cncc(N3C[C@H]4CCCCC43)n1)[C@H](CC(C)(C)C)CO2 (stereo in doubt) [Compound 1799]
13,+++ (+++ is >60+),Cc1cccc(C)c1-c1cc2nc(n1)NS(=O)(=O)c1cccc(c1)C(=O)N(Cc1cncc(N(C)C3CCC3)n1)[C@H](c1ccccc1)CO2 [Compound 1731]
14,+++ (+++ is >60+),Cc1cccc(C)c1-c1cc2nc(n1)NS(=O)(=O)c1cccc(c1)C(=O)N(Cc1cncc(N(C)[C@H]3C[C@@H](F)C3)n1)[C@H](CCC(C)(C)C)CO2 [Compound 1848]
15,+++ (+++ is >60+),CCC(C)(C)C[C@@H]1COc2cc(-c3c(C)cccc3C)nc(n2)NS(=O)(=O)c2cccc(c2)C(=O)N1Cc1cncc(N2CC[C@H]2C)n1 [Compound 1861]
16,+++ (+++ is >60+),Cc1cccc(C)c1-c1cc2nc(n1)NS(=O)(=O)c1cccc(c1)C(=O)N(Cc1cncc(N3CCCO[C@H]4CC[C@H]43)n1)[C@H](CC(C)(C)C)CO2 (stereo in doubt) [Compound 1952]
17,+++ (+++ is >60+),Cc1cccc(C)c1-c1cc2nc(n1)NS(=O)(=O)c1cccc(c1)C(=O)N(Cc1cncc(N3CCCC[C@H]3C)n1)[C@H](CC1CCCC1)CO2 [Compound 1847]
18,+++ (+++ is >60+),Cc1cccc(C)c1-c1cc2nc(n1)NS(=O)(=O)c1cccc(c1)C(=O)N(Cc1cncc(N3CCC[C@H]3C)n1)[C@H](CC1CC(C)(C)C1)CO2 [Compound 1899]
19,+++ (+++ is >60+),CC[C@@H]1CCCN1c1cncc(CN2C(=O)c3cccc(c3)S(=O)(=O)Nc3nc(cc(-c4c(C)cccc4C)n3)OC[C@H]2CCC(C)(C)C)n1 [Compound 1816]
20,+++ (+++ is >60+),Cc1cccc(C)c1-c1cc2nc(n1)NS(=O)(=O)c1cccc(c1)C(=O)N(Cc1cncc(N3CC[C@H]4CC[C@H]43)n1)[C@H](CCC(C)(C)C)CO2 [Compound 1854]
21,+++ (+++ is >60+),Cc1cccc(C)c1-c1cc2nc(n1)NS(=O)(=O)c1cccc(c1)C(=O)N(Cc1cnc3c(cc(C(C)C)n3C)n1)[C@H](CC(C)(C)C)CO2 [Compound 1858]
22,+++ (+++ is >60+),Cc1cccc(C)c1-c1cc2nc(n1)NS(=O)(=O)c1cccc(c1)C(=O)N(Cc1cnc3cc(C(C)C)n(C)c3n1)[C@H](CC1(C)CC1)CO2 [Compound 1831]
23,+++ (+++ is >60+),Cc1cccc(C)c1-c1cc2nc(n1)NS(=O)(=O)c1cccc(c1)C(=O)N(Cc1cncc(N3CC(C)(C)[C@H]3C(C)C)n1)[C@H](CC(C)(C)C)CO2 [Compound 1750]
24,+++ (+++ is >60+),CCC(CC)N(C)c1cncc(CN2C(=O)c3cccc(c3)S(=O)(=O)Nc3nc(cc(-c4c(C)cccc4C)n3)OC[C@H]2CC(C)(C)C)n1 [Compound 1754]
25,+++ (+++ is >60+),Cc1cc(C)c(-c2cc3nc(n2)NS(=O)(=O)c2cccc(c2)C(=O)N(Cc2cncc(N(C)C4CCC4)n2)[C@H](CC(C)(C)C)CO3)c(C)c1 [Compound 1729]
26,+++ (+++ is >60+),Cc1cccc(C)c1-c1cc2nc(n1)NS(=O)(=O)c1cccc(c1)C(=O)N(Cc1cncc(N3CCCC3C(C)C)n1)[C@H](CC1CCCCC1)CO2 (stereo partly drawn) [Compound 1824]

# Same assay, conditions: 3 μM; F508del/MF-HBE cells; with 44 nM potentiator; 18-24 hours; 20% human serum
row,HBE2 Activity at 3 μM (%),SMILES
1,+++ (+++ is >60+),Cc1cccc(C)c1-c1cc2nc(n1)NS(=N)(=O)c1cccc(c1)C(=O)N(Cc1ncc(OC(C)C)cn1)[C@H](CC(C)(C)C)CO2 (stereo partly drawn) [Compound 1575]
2,+++ (+++ is >60+),Cc1cccc(C)c1-c1cc2nc(n1)NS(=O)(=O)c1cccc(c1)C(=O)N(Cc1cncc(N3CCCC3CC(=O)N(C)C)n1)[C@H](CC(C)(C)C)CO2 (stereo partly drawn) [Compound 1658]
3,+++ (+++ is >60+),Cc1cccc(C)c1-c1cc2nc(n1)NS(=O)(=O)c1cccc(c1)C(=O)N(Cc1cncc(N(C)C3CCC3)n1)[C@H](CC1CCC1)CO2 [Compound 1669]
4,+++ (+++ is >60+),Cc1cccc(C)c1-c1cc2nc(n1)NS(=O)(=O)c1cccc(c1)C(=O)N(Cc1ncc(OC(C)C)cn1)[C@H](CC1CCC1)[C@@H](C)O2 [Compound 1565]
5,+++ (+++ is >60+),"Cc1cccc(C)c1-c1cc2nc(n1)NS(=N)(=O)c1cccc(c1)C(=O)N(Cc1ncc(N3CC(C)(C)C3)cn1)[C@H](CC(C)(C)C)CO2 (single isomer, unassigned) [Compound 1313]"
6,+++ (+++ is >60+),Cc1cccc(C)c1-c1cc2nc(n1)NS(=O)(=O)c1cccc(c1)C(=O)N(Cc1ncc(OC3CCC3)cn1)[C@H](CC1(C)CC1)CO2 [Compound 1576]
7,+++ (+++ is >60+),CC(=O)N(C)CCN(C)c1cncc(CN2C(=O)c3cccc(c3)S(=O)(=O)Nc3nc(cc(-c4c(C)cccc4C)n3)OC[C@H]2CC(C)(C)C)n1 [Compound 1661]
8,+++ (+++ is >60+),Cc1cccc(C)c1-c1cc2nc(n1)NS(=O)(=O)c1cccc(c1)C(=O)N(Cc1cccc(N3CCC[C@@]3(C)CO)n1)[C@H](CC(C)(C)C)CO2 [Compound 1586]
9,+++ (+++ is >60+),Cc1cccc(C)c1-c1cc2nc(n1)NS(=O)(=O)c1cccc(c1)C(=O)N(Cc1cncc(N(C)[C@@H]3C[C@H]4COC[C@H]43)n1)[C@H](CC(C)(C)C)CO2 (stereo in doubt) [Compound 1677]
10,+++ (+++ is >60+),COC[C@@H]1CCN1c1cccc(CN2C(=O)c3cccc(c3)S(=O)(=O)Nc3nc(cc(-c4c(C)cccc4C)n3)OC[C@H]2CC(C)(C)C)n1 [Compound 1550]
11,+++ (+++ is >60+),CCCCN(C)c1cncc(CN2C(=O)c3cccc(c3)S(=O)(=O)Nc3nc(cc(-c4c(C)cccc4C)n3)OC[C@H]2CC(C)(C)C)n1 [Compound 1698]
12,+++ (+++ is >60+),Cc1cccc(C)c1-c1cc2nc(n1)NS(=O)(=O)c1cccc(c1)C(=O)N(Cc1cncc(N3CC4OCC[C@@H]43)n1)[C@H](CC(C)(C)C)CO2 (stereo in doubt) [Compound 1629]
13,+++ (+++ is >60+),CC(C)c1ccccc1-c1cc2nc(n1)NS(=O)(=O)c1cccc(c1)C(=O)N(Cc1cncc(N(C)C3CCC3)n1)[C@H](CC(C)(C)C)CO2 [Compound 1704]

# Same assay, conditions: F508del/MF-HBE cells; with 44 nM potentiator; 18-24 hours; 20% human serum
row,EC50 [nM],SMILES
1,< 1000,CO[C@@H]1CC[C@@H]1N(C)c1cncc(CN2C(=O)c3cccc(c3)S(=O)(=O)Nc3nc(cc(-c4c(C)cccc4C)n3)OC[C@H]2CC(C)(C)C)n1 (stereo in doubt) [Compound 1610]
2,< 1000,Cc1cccc(C)c1-c1cc2nc(n1)NS(=O)(=O)c1cccc(c1)C(=O)N(Cc1cncc(N(C)C3CCC3)n1)[C@H](CC1CCC1)CO2 [Compound 1669]
3,< 1000,CC[C@H](C)[C@@H]1COc2cc(-c3c(C)cccc3C)nc(n2)NS(=O)(=O)c2cccc(c2)C(=O)N1Cc1cncc(N(C)C2CCC2)n1 [Compound 1703]

# Same assay, conditions: F508del/MF-HBE cells; with 44 nM potentiator; 18-24 hours; 20% human serum; read-out: HBE2 Max activity (%)
row,Emax [%],SMILES
1,> 60,CO[C@@H]1CC[C@@H]1N(C)c1cncc(CN2C(=O)c3cccc(c3)S(=O)(=O)Nc3nc(cc(-c4c(C)cccc4C)n3)OC[C@H]2CC(C)(C)C)n1 (stereo in doubt) [Compound 1610]
2,> 60,Cc1cccc(C)c1-c1cc2nc(n1)NS(=O)(=O)c1cccc(c1)C(=O)N(Cc1cncc(N(C)C3CCC3)n1)[C@H](CC1CCC1)CO2 [Compound 1669]
3,> 60,CC[C@H](C)[C@@H]1COc2cc(-c3c(C)cccc3C)nc(n2)NS(=O)(=O)c2cccc(c2)C(=O)N1Cc1cncc(N(C)C2CCC2)n1 [Compound 1703]

# From patent US20240150377A1, “MODULATORS OF CYSTIC FIBROSIS TRANSMEMBRANE CONDUCTANCE REGULATOR” (VERTEX PHARMACEUTICALS INCORPORATED, priority 2020, published 2024)
